Experiments:
Type in all cases: in vivo, Arabidopsis thaliana
WT Ws plants = assay: Survival after drought treatment on absorbing papers, WT Ws plants treated with ABA for 10 days; settings: +ABA 5 μM for 10 days, n = 30
Procedure: (§1) Seeds of Arabidopsis thaliana, ecotype Wassilewskija, Columbia or Landsberg erecta were surface sterilized in 50% commercial bleach (Clorox) and 0.05% Tween 20 as described (Lopez-Molina and Chua, 2000) and then plated on Murashige and Skoog (MS) medium (Murashige and Skoog, 1962) containing 0.8% (w/v) Bacto-Agar (Difco Laboratories). Plates were routinely kept for 3 days in the dark at 4° C. to break dormancy (stratification) and transferred thereafter to a tissue culture room under constant white fluorescent light (27 μmol.m^−2.s^−1) at 22° C. Seeds of abi1, abi3-I and abi4 were obtained from the Nottingham Arabidopsis Stock Center (NASC). For ABA treatments, seedlings were transferred to plates supplemented with ABA (mixed isomers, Sigma A7393) which was dissolved in methanol. Control plates contained equal amounts of methanol.
(§2) To test this hypothesis, we broke embryo dormancy of WT and abi5-4 seeds in the absence of ABA for 24 hours. Seeds were then transferred for an additional 10 days to media with or without ABA. After 10 days, ABA-treated WT mature embryos had germinated but were arrested in growth as described above, whereas abi5-4 or non-treated WT Ws plants were green and continued to grow. Plants were then water-stressed for different time intervals on absorbent papers before being allowed to recover in normal medium. […] This is in sharp contrast with abi5-4 embryos, none of which survived. abi5-4 plants were able to survive better with than without ABA (Table 1), although not to the same extent as WT. […] Indeed, abi5-4 plants grow more slowly on 5 μM ABA than on medium lacking it, whereas the growth of WT plants is completely arrested. This developmental difference may be responsible for the higher resistance to water depletion of ABA-treated abi5-4 plants (Table 1).

abi5-4 plants = assay: Survival after drought treatment on absorbing papers, abi5-4 plants treated with ABA for 10 days; settings: abi5, +ABA 5 μM for 10 days, n = 30
Procedure: as §1, §2

ABI5 = ABI5 protein accumulation in WT Ws seeds/seedlings by Western blot
Source text: RNA extraction and Northern blot hybridizations were done as described (Lopez-Molina and Chua, 2000). A DNA fragment encoding the ABI5 open reading frame was cloned into pET28a (Novagen) and the recombinant protein was induced and purified using a commercial kit according to the manufacturer's instructions (His trap, Amersham Pharmacia). Polyclonal anti-ABI5 antiserum was obtained from rabbits immunized with His-tagged ABI5. Standard methods using His-ABI5 coupled to a CNBr activated Sepharose 6-MB column (Amersham Pharmacia) were used to affinity purify specific ABI5 antibody from sera.
Plant protein extracts were resolved under reducing conditions using 10% SDS-polyacrylamide gels (Laemmli, 1970). […]
ABA concentrations (3-10 μM) that discriminate between abi5-4 mutants and WT under normal growth conditions were selected. […] Indeed, by immunoblot analysis, the ABI5 protein with a molecular mass of about 50 Kd was detected two days after stratification in the presence of ABA. […]
To determine whether the observed ABA-dependent accumulation of ABI5 levels was restricted to early development, we stratified WT seeds in the absence of ABA and then transferred the seedlings at different time intervals to a medium supplemented with 5 μM ABA (FIG. 3A). […] ABI5 levels were monitored by Western blot analysis. […] ABI5 levels were monitored by Western blot analyses as described for FIG. 1 (FIG. 3B).

HA-ABI5 = HA-ABI5 accumulation in WT/35S::HA-ABI5 transgenic lines by immunoblot; settings: WT/35S::HA-ABI5 lines, anti-HA immunoblot
Procedure: Given the strong ABA-dependent ABI5 protein accumulation, we were interested to determine whether ABI5 protein stability is altered in the presence of ABA. For this purpose we generated WT/35S::HA-ABI5 transgenic lines constitutively expressing HA-ABI5 transcript. DNA manipulations were performed according to standard methods (Sambrook et al., 1989). 35S constructs were generated using a binary vector (Kost et al., 1998). Transgenic Arabidopsis lines (Ws ecotype) were generated using the Agrobacterium tumefaciens vacuum-infiltration method (Bechtold and Pelletier, 1998). Seeds (T1) from infiltrated plants were plated on MS medium containing 10 mg/L gluphosinate ammonium (Crescent Chemical) and 100 mg/L cefotaxime (Sigma).
In these lines, HA-ABI5 accumulation is 5-10 fold higher in the presence of ABA as shown by immunoblot analysis using anti-HA antibodies. 8-day old Ws/35S::HA-ABI5 seedlings (T3 generation) were transferred to MS medium with or without 50 μM ABA. Proteins were extracted at 0 hours, 10 minutes, 1 hour, 2 hours and 30 minutes, and 6 hours and ABI5 protein levels were monitored by Western blot analysis using antibodies to HA (FIG. 2A; each lane contains 5 μg protein). […] Equal amounts (5 μg) of protein were loaded on a 10% SDS-polyacrylamide (Novex) gel and analyzed by Western blots using rabbit antibody to HA (1:3,000; Santa Cruz).

WT Ws seeds = assay: Germination and early growth arrest of WT seeds on ABA plates
Procedure: as §1
Given the ABA-insensitivity of abi5-4 mutant and the timing of ABI5 induction upon ABA exposure, we studied the effect of ABA on growth during early development. […] Virtually all WT seeds were fully germinated on 5 μM ABA only 5 days post-stratification (FIG. 3C). Similar results were obtained with different Ws seed batches and for the ecotypes Landsberg and Columbia. At 10 μM ABA, complete germination was observed 8 days post-stratification (FIG. 3D). […] ABI5 levels remained constant as long as ABA was present. […] Upon ABA removal, all of the embryos started to green and resumed normal growth.

[1] = system: Ws/35S::HA-ABI5 transgenic plants; assay: Germination and growth of ABI5 overexpressing transgenic seeds on ABA
Procedure: To determine whether the presence of ABI5 is sufficient to arrest growth in the absence of ABA, we expressed the ABI5 gene from a constitutive promoter. Transgenic Arabidopsis lines expressing ABI5 under the control of the cauliflower mosaic virus 35S promoter in WT Ws or abi5-4 backgrounds were generated and several independent lines expressing various levels of ABI5 were obtained. WT Ws and Ws/35S::HA-ABI5 transgenic plants were grown for 5 days with 0, 0.5 and 5 μM ABA. In the transgenic line shown in FIG. 5A, ABI5 levels in absence of ABA were at least five fold higher than that in WT plants grown in the presence of ABA. Transgenic seeds were arrested in development at 0.5 μM ABA and only started to germinate after 5 days (FIG. 5A). WT Ws seeds were insensitive to 0.5 μM ABA and were fully germinated in 5 μM ABA after 5 days (FIG. 5A). Despite the accumulation of ABI5, the lines germinated and developed normally in the absence of ABA.
We next investigated the effect of ABA in ABI5 overexpressing lines. Addition of 5 μM ABA severely delayed germination by at least 7 days and blocked mature embryo growth in several lines. To measure more precisely the ABA response, we plated WT/35S::HA-ABI5 transgenic seeds on growth media containing different ABA concentrations. Treatment of WT/35S::HA-ABI5 plants with 0.5 μM ABA was sufficient to phenocopy the response of WT plants exposed to 5 μM ABA (FIG. 5A).

[2] = system: Ws/35S::HA-ABI5 transgenic lines; assay: ABA inhibition of root growth, ABI5-overexpressing lines; settings: 5-day old seedlings, 5 and 10 μM ABA for 5 days, n=15
Procedure: (§3) The following methods were used in obtaining the further results described below. WT Ws seedlings and transgenic Ws seedlings carrying 35S::HA -ABI5 (WT/35S::HA -ABI5, T3 generation) were germinated and grown for 5 days on MS medium without ABA. Seedlings were then transferred to plates containing 5 μM ABA, and subsequent root growth was scored after 5 days. Values were expressed as the average ±SD of 15 seedlings. For water loss measurement, young rosette leaves at the same developmental stage were excised from WT Ws, WT/35S::HA-ABI5 and abi1 plants and weighed at the different times indicated (n=3).
(§4) At 0.5 μM ABA, WT plants grew normally (FIG. 5A). Inhibition of root growth by ABA was unaffected in abi5-4 mutants but was exacerbated in ABI5-overexpressing lines (FIG. 5B). Five-day old seedlings grown in the absence of ABA were transferred to 0, 5 and 10 μM ABA plates for 5 days. The root length of ABA-treated seedlings was expressed as a percentage of non-treated controls (n=15).

abi5-4 mutants = assay: ABA inhibition of root growth, abi5-4 mutants
Procedure: as §3, §4

Question: What does the source list for `CC1=CC(=O)CC(C)(C)[C@@]1(O)/C=C/C(C)=C\C(=O)O` [ABA, Abscisic acid]?
Answer: Percentage of survival after different period of drought treatment (hours) (WT Ws plants; 0 hours drought): 100%; Percentage of survival after different period of drought treatment (hours) (WT Ws plants; 8 hours drought): 100%; Percentage of survival after different period of drought treatment (hours) (WT Ws plants; 12 hours drought): 98%; Percentage of survival after different period of drought treatment (hours) (WT Ws plants; 24 hours drought): 90%; Percentage of survival after different period of drought treatment (hours) (WT Ws plants; 36 hours drought): 84%; Percentage of survival after different period of drought treatment (hours) (abi5-4 plants; 0 hours drought): 100%; Percentage of survival after different period of drought treatment (hours) (abi5-4 plants; 8 hours drought): 97%; Percentage of survival after different period of drought treatment (hours) (abi5-4 plants; 12 hours drought): 55%; Percentage of survival after different period of drought treatment (hours) (abi5-4 plants; 24 hours drought): 20%; Percentage of survival after different period of drought treatment (hours) (abi5-4 plants; 36 hours drought): 0%; developmental window of efficient induction of ABI5 accumulation (ABI5; WT Ws transferred to 5 μM ABA plates): 48-60 hours post-stratification; increase of ABI5 protein level in the presence of ABA (ABI5; WT Ws, 5 μM ABA, first two days post-stratification): at least 10 fold; HA-ABI5 accumulation higher in the presence of ABA (HA-ABI5): 5-10 fold; response of WT Ws seeds to ABA (WT Ws seeds; 0.5 μM ABA, 5 days): insensitive; time after which all seeds fully germinate in the presence of ABA (WT Ws seeds; ABA concentration range 3 to 10 μM): 10 days; embryos remaining white and quiescent, not growing (WT Ws seeds; WT germinated embryos kept on ABA for at least a month, n=200): 95%±3; time at which virtually all seeds were fully germinated (WT Ws seeds; WT seeds, 5 μM ABA): 5 days post-stratification; time at which complete germination was observed (WT Ws seeds; WT seeds, 10 μM ABA): 8 days post-stratification; delay of germination ([1]; ABI5 overexpressing lines, 5 μM ABA): at least 7 days; ABA concentration sufficient to phenocopy the response of WT plants exposed to 5 μM ABA ([1]; WT/35S::HA-ABI5 plants): 0.5 µM; time after which arrested transgenic seeds started to germinate ([1]; Ws/35S::HA-ABI5 seeds, 0.5 μM ABA): 5 days; inhibition of root growth by ABA compared with WT Ws [2]: exacerbated; inhibition of root growth by ABA (abi5-4 mutants): unaffected
